Experimental data taken from paper PMC5536041, “Inhibitory Effects of Trapping Agents of Sulfur Drug Reactive Intermediates against Major Human Cytochrome P450 Isoforms” (International Journal of Molecular Sciences, 2017).
Read-outs that look alike come from different tables or passages of the source.

Tests used:
[1] = biological target: T1, CYP1A2 (Homo sapiens, UniProt P05177); settings: microsomes
T1 sequence (P05177 1-516): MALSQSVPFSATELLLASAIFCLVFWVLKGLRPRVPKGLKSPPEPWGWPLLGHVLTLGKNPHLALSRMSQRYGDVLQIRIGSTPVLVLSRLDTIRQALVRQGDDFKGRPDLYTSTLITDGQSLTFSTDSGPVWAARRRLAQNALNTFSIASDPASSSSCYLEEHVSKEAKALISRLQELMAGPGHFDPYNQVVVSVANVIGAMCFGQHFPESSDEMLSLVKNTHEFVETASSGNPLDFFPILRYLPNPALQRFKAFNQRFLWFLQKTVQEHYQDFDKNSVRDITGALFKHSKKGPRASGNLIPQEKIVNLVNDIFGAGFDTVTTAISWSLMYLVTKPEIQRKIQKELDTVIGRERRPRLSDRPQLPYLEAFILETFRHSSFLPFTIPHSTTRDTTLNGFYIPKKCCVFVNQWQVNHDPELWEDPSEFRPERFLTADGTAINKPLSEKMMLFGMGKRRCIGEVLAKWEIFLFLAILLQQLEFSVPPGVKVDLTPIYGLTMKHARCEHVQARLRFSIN

[2] = biological target: T2, CYP3A (Homo sapiens, UniProt P08684); settings: microsomes
T2 sequence (P08684 2-503 limits assumed): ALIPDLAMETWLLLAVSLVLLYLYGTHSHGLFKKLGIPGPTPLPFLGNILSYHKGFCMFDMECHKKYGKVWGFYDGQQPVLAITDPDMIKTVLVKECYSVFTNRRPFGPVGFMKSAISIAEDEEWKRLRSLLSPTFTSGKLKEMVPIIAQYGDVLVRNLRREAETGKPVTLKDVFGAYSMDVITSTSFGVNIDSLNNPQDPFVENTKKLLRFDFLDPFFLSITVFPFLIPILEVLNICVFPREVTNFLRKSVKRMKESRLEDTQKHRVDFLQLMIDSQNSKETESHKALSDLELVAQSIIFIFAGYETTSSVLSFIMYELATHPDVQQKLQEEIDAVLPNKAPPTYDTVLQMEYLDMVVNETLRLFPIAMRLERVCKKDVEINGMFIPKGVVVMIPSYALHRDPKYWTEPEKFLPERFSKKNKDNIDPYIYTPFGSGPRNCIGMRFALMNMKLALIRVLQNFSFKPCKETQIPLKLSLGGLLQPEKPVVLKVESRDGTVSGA

[3] = biological target: T2, CYP3A; settings: microsomes; remark: listed apart in the source
[4] = biological target: T3, CYP2C19 (Homo sapiens, UniProt P33261); settings: microsomes
T3 sequence (P33261 whole entry): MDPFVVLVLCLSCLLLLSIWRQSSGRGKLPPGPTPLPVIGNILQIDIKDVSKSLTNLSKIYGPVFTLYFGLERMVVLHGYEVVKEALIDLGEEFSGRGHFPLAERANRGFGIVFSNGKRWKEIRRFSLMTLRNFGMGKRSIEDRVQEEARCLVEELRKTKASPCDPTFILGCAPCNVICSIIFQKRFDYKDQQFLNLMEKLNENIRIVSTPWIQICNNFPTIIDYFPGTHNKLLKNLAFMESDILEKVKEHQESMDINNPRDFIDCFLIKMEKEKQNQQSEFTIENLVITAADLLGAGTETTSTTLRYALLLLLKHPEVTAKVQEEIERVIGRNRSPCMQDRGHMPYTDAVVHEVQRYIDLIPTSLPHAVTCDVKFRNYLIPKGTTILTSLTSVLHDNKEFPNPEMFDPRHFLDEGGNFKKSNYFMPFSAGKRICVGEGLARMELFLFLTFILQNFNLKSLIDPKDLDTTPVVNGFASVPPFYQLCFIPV

[5] = biological target: T4, CYP2D6 (Homo sapiens, UniProt P10635); settings: microsomes
T4 sequence (P10635 whole entry, canonical isoform): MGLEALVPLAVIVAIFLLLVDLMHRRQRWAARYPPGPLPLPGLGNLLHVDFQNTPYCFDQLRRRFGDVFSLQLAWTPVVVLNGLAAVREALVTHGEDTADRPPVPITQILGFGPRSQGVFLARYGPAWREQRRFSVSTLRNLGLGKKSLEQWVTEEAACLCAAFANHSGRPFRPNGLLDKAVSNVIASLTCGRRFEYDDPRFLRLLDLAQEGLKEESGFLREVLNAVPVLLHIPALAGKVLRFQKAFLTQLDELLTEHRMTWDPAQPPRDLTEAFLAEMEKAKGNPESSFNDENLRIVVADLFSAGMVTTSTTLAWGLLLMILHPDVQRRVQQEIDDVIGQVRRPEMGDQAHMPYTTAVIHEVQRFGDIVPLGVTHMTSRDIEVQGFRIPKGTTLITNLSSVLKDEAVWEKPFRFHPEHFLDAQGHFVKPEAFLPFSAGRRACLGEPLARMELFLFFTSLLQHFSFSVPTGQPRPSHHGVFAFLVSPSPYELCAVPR

[6] = tested on: major human CYP isoforms (CYP1A2, 2C9, 2C19, 2D6 and 3A)
[7] = biological target: T5, CYP2C9 (Homo sapiens, UniProt P11712); settings: microsomes
T5 sequence (P11712 whole entry): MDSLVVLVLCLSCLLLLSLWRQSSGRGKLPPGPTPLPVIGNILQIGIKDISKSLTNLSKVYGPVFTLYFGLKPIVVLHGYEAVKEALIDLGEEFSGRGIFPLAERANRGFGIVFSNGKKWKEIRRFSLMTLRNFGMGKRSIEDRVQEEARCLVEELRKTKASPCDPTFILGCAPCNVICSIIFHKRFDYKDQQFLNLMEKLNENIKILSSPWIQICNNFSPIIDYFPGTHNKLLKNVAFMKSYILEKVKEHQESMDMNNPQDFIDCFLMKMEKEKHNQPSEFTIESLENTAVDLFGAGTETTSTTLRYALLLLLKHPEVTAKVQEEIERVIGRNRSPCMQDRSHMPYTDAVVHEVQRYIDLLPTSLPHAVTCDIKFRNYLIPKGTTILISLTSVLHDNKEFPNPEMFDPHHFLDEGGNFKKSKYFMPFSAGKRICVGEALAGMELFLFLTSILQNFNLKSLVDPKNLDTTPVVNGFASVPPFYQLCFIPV

[8] = biological target: T1, CYP1A2; test: CYP inhibition in human liver microsomes, CYP1A2 (tacrine probe)
[9] = biological target: T5, CYP2C9; test: CYP inhibition in human liver microsomes, CYP2C9 ((S)-warfarin probe); settings: for Activation of CYP2C9 observed at concentrations up to: HLM + NADPH, (S)-warfarin probe
[10] = biological target: T3, CYP2C19; test: CYP inhibition in human liver microsomes, CYP2C19 ((S)-mephenytoin probe); settings: for Activation of CYP2C19 observed at concentrations up to: HLM + NADPH, (S)-mephenytoin probe
[11] = tested on: major human CYP isoforms (CYP1A2, 2C9, 2C19, 2D6 and 3A); test: in vitro; settings: microsomes
[12] = biological target: T4, CYP2D6; test: CYP inhibition in human liver microsomes, CYP2D6 (dextromethorphan probe)
[13] = tested on: ticlopidine metabolism in human liver microsomes (TSOD and TSO-NEM formation); test: Trapping of reactive metabolites of ticlopidine with NEM in human liver microsomes; type: in vitro ADME; settings: ticlopidine 1 μM
Procedure: Ticlopidine (1 μM) was incubated at 37 °C for 15 min in the presence or absence of various concentrations of NEM with HLM (0.5 mg/mL), NADPH (1 mM) and KPi (0.1 M), in a final incubation volume of 100 µL. Assay conditions were optimized with regard to protein concentration and incubation time, based on linear formation of TSOD. The incubations were performed over a concentration range of NEM (0.0007–40 mM) including a vehicle control, for a total of twelve incubations. A 50 µL sample was withdrawn at 15 min and the reactions were quenched in 100 µL of 0.1% formic acid in ACN containing an IS. Samples were centrifuged at 2000× g for 10 min and supernatants (75 µL) were removed and diluted with 0.1% formic acid in water (150 µL). The prepared samples were analyzed by LC-MS/MS for ticlopidine, N-ethylmaleimide-trapped S-oxide (TSO-NEM) and ticlopidine S-oxide dimer (TSOD). Peak areas were normalized to an IS, and the percentage of metabolite formed at the end of the incubation was calculated and compared to the incubation containing the highest peak area to IS ratio of metabolite (set at 100%).
The prepared samples were analyzed by LC-MS/MS using a Cohesive LX-2 Transcend Multiplexing system with Agilent 1100 series high pressure liquid chromatography (HPLC) pumps from Agilent Technologies (Santa Clara, CA, USA) and an HTS PAL autosampler from CTC Analytics (Carrboro, NC, USA) connected to a Sciex API5500-QTrap mass spectrometer with a Turbo V™ ion source (Foster City, CA, USA). A Phenomenex Kinetex Phenyl-Hexyl HPLC column (30 × 2.1 mm, 2.6 µ) was used with 0.1% formic acid in water (mobile phase A) or 0.1% formic acid in ACN (mobile phase B) flowing at 0.55 mL/min in the following gradient: mobile phase B was held at 1% for 0.4 min, increased to 5% over 0.2 min, to 55% over 6.7 min and to 95% over 0.5 min, where it was held for 0.75 min prior to re-equilibration at 1%. LC-MS/MS multiple reaction (MRM) transitions for the CYP inhibition assay were reported previously. […]

[14] = biological target: T1, CYP1A2; test: in vitro; settings: microsomes
[15] = biological target: T2, CYP3A; test: in vitro; settings: microsomes
[16] = tested on: major human CYP isoforms (CYP1A2, 2C9, 2C19, 2D6 and 3A); test: CYP inhibition in human liver microsomes, summary over the isoform panel; settings: HLM + NADPH
[17] = biological target: T2, CYP3A; test: in vitro; settings: microsomes; remark: listed apart in the source

In the case of O=[As][O-].[Na+] [Arsenite, sodium arsenite], the IC50 [1] is reported as greater than 10 mM, the IC50 [2] is reported as greater than 10 mM and the IC50 [3] is reported as greater than 10 mM. The IC50 [4] was greater than 10 mM, the IC50 [5] was greater than 10 mM and the “Concentration up to which no CYP inhibition was shown” value [6] was “up to 10 mM”. For the same compound, the “Inhibition of CYP isoforms at concentrations tested” value (shortened to “Inhibition of CYP isoforms”) [6] was “did not inhibit CYP isoforms at concentrations tested” and the IC50 [7] was greater than 10 mM.
CN1CCCCC1 [N-Methylpiperidine] was tested, and the “Activation of CYP1A2 observed at concentrations up to” value ([8]; HLM + NADPH, tacrine probe) was “up to 12.5 mM”.
With CN1C(=O)C=CC1=O [N-Methylmaleimide] the “Activation of CYP2C9 observed at concentrations up to” value [9] was “up to 0.2 mM” and the “Activation of CYP2C19 observed at concentrations up to” value [10] was “up to 0.2 mM”.
C1COCCN1 [Morpholine] was tested, and the IC50 [9] was 7.9 mM, the “Activation of CYP1A2” value [1] was “activation was observed” and the IC50 [11] was 7.9 to 16 mM. For the same compound, the IC50 [12] was 13 mM, the IC50 [10] was 14 mM and the IC50 [8] was greater than 100 mM.
For CCN1C(=O)C=CC1=O [N-Ethylmaleimide (NEM), N-Ethylmaleimide], the IC50 [9] was 3.2 mM, the “Activation of CYP2C9 observed at concentrations up to” value [9] was “up to 1 mM” and the IC50 [12] was greater than 40 mM. The IC50 [10] was 2.9 mM, the “Activation of CYP2C19 observed at concentrations up to” value [10] was “up to 0.4 mM” and the “NEM concentration at and above which TSO-NEM formation rapidly decreases” value ([13]; HLM 0.5 mg/mL, NADPH, 15 min) was no less than 165 µM. For the same compound, the “NEM concentrations with initial increase in TSOD formation” value ([13]; HLM 0.5 mg/mL, NADPH, 15 min) was 0.7 to 18.3 µM, the “Response of TSO-NEM formation to increasing NEM concentration” value ([13]; NEM 0.007–40 mM) was “bell-shaped response curve” and the IC50 [14] was 0.12 mM.
In the case of O=C(O)CCP(CCC(=O)O)CCC(=O)O [Tris(2-carboxyethyl) phosphine (TCEP), Tris(2-carboxyethyl) phosphine], the “Activation of CYP2D6” value ([12]; HLM + NADPH, dextromethorphan probe) is reported as “activation was observed”.
In the case of CC(=O)N[C@@H](CCCCN)C(=O)O [N-Acetyl-lysine1, N-Acetyl-lysine], the IC50 [15] is reported as greater than 50 mM, the “Inhibition of CYP isoforms” value [16] is reported as “did not inhibit CYP isoforms at concentrations tested” and the “Concentration up to which no CYP inhibition was shown” value ([16]; all isoforms tested) is reported as “up to 50 mM”. It also gave an IC50 [17] greater than 50 mM.
In the case of CC1(C)CC(=O)CC(=O)C1 [5,5-dimethyl-1,3-cyclohexanedione], the “Inhibition of CYP isoforms” value [16] is reported as “did not inhibit CYP isoforms at concentrations tested”.
